16 molecules from ChEMBL document CHEMBL1124293, “2,4-Diamino-6,7-dimethoxyquinoline derivatives as alpha 1-adrenoceptor antagonists and antihypertensive agents” (J Med Chem, 1988) can be followed below.

What is called Ki is a measure of affinity in units of concentration, obtained from inhibition or displacement. High values mean a looser hold on the target, low ones a stronger hold on the target.

Test [1] has as its system Rattus norvegicus. The test is described as follows: Percent reduction in Spontaneously hypertensive rat blood pressure after 4.5 hr of 3 mg/kg, po administration. The class given is functional.
For test [2], the target named is T1, Adrenergic receptor alpha-1 (Rattus norvegicus, UniProt P15823+P23944+P43140).
T1 sequence (P15823 whole entry): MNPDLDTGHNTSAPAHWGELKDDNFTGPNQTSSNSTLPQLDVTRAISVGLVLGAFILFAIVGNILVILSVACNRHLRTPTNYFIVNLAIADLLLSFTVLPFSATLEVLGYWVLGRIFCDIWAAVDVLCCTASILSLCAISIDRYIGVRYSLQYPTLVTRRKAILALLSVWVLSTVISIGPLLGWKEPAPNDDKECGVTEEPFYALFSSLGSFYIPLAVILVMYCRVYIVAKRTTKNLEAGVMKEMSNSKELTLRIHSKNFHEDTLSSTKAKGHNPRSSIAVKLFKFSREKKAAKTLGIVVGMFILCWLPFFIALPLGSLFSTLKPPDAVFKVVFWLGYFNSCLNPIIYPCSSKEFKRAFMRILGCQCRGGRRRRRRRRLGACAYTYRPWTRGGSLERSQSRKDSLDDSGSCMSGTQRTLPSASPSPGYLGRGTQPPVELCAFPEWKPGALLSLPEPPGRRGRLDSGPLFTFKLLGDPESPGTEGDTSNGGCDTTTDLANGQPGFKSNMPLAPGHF
T1 sequence (P23944 whole entry): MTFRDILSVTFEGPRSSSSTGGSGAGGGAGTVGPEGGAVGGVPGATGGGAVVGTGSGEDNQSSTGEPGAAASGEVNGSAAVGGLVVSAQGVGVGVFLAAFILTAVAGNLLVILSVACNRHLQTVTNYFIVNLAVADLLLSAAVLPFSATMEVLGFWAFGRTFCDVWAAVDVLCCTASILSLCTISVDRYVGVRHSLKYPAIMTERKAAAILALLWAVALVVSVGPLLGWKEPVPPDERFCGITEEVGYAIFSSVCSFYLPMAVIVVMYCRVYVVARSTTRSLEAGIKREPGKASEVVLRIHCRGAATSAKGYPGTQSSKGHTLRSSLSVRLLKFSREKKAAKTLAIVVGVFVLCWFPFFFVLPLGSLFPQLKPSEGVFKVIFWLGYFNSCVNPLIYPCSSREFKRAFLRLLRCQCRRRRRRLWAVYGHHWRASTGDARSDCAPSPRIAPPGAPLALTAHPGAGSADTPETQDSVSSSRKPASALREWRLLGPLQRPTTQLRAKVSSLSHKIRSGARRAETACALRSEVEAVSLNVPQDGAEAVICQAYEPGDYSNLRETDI
T1 sequence (P43140 whole entry): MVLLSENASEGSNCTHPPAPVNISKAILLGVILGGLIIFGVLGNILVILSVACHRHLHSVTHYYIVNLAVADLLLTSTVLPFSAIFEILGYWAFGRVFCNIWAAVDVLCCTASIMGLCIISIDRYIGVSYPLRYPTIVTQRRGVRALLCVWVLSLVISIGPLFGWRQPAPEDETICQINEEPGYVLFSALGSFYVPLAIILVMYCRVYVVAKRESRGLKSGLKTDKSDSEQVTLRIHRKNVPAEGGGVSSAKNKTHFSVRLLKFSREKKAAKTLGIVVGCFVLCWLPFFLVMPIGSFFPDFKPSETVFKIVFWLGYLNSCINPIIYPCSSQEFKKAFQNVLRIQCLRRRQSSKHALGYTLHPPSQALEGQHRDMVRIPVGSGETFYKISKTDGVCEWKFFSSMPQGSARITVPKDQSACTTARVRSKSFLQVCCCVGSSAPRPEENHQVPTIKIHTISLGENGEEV
The test is described as follows: Binding affinity towards alpha-1 adrenergic receptor from rat brain homogenate preparation by displacement of [3H]prazosin. In kind it is tissue-based.

Test [3] concerns the target T2, Adrenergic receptor alpha-2 (Rattus norvegicus) (UniProt P22086+P19328+P22909). The test is described as follows: Binding affinity towards alpha-2 adrenergic receptor from rat brain homogenate preparation by displacement of [3H]clonidine at 10e-6 M concentration. The class given is tissue-based. For orientation: Displacement assays read how much labelled ligand stays bound in the presence of the test substance.

In test [4] the test system is Rattus norvegicus. The test is described as follows: Percent reduction in Spontaneously hypertensive rat blood pressure after 1 h of 3 mg/kg, po administration. The class given is functional.
In test [5] the target is T2, Adrenergic receptor alpha-2 (Rattus norvegicus). The test is described as follows: Binding affinity towards alpha-2 adrenergic receptor from rat brain homogenate preparation by displacement of [3H]clonidine at 10E-6 M. In kind it is tissue-based.
Test [6] has as its target T3, Adrenergic receptor alpha-2 (Rattus norvegicus, UniProt P22086+P19328+P22909).
T3 sequence (P22086 whole entry): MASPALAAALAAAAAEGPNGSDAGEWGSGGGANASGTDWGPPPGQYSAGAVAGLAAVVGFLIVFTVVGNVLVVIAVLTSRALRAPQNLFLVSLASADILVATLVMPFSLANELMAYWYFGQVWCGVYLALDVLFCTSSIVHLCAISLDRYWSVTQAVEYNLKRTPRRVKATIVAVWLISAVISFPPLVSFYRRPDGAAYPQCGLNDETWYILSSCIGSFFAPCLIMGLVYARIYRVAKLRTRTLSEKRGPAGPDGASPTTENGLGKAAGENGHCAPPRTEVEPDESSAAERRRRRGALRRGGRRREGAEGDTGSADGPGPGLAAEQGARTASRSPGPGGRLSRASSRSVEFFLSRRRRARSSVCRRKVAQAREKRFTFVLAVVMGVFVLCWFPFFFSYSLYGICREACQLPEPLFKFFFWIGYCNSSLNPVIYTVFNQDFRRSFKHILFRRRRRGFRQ
T3 sequence (P19328 whole entry): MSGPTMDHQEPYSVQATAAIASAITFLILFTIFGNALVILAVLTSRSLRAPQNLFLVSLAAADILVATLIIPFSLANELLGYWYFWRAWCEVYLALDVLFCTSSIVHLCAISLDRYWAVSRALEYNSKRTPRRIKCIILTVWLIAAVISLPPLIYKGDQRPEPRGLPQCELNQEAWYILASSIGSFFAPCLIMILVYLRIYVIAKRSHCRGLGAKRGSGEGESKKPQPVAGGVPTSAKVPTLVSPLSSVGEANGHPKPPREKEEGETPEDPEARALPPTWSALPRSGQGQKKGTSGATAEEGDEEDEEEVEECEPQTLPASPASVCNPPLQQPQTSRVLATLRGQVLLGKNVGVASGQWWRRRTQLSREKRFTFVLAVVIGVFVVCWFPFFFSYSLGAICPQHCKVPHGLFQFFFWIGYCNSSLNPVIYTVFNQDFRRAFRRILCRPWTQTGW
T3 sequence (P22909 whole entry): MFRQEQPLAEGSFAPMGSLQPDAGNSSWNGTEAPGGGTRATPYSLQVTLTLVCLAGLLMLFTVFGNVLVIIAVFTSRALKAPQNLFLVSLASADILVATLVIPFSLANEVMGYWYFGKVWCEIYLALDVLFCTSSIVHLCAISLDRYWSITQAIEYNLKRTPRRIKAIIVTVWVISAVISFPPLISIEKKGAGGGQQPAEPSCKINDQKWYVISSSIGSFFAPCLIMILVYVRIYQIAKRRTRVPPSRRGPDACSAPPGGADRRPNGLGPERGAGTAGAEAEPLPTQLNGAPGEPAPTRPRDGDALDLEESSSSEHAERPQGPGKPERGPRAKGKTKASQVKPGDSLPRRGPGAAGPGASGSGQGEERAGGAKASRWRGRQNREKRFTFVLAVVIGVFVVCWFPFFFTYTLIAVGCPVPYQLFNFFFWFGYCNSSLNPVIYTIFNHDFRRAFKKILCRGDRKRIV
The test is described as follows: Binding affinity towards alpha-2 adrenergic receptor from rat brain homogenate preparation by displacement of [3H]clonidine. The class given is tissue-based.

The target of test [7] is T2, Adrenergic receptor alpha-2 (Rattus norvegicus). Briefly: Binding affinity towards alpha-2 adrenergic receptor from rat brain homogenate preparation by displacement of [3H]clonidine at 10e-6 M. The class given is tissue-based.
Test [8] relates to Rattus norvegicus. Briefly: Percent reduction in Spontaneously hypertensive rat blood pressure after 1 hr of 3 mg/kg, po administration. The class given is functional.

On to `COc1cc2nc(N3CCNCC3)cc(N)c2cc1OC`, for which the figures for the Reduction in the test with Rattus norvegicus [1] and in the test with Rattus norvegicus [4] were 14% and 11%, respectively. In test [2], this molecule registered a Ki of 30.06 nM. In test [3], this molecule gave a Displacement of less than 50%.

In the case of `COc1cc2nc(N3CCN(Cc4ccccc4)CC3)cc(N)c2cc1OC`, the results for the Reduction in the test on Rattus norvegicus [1] and with Rattus norvegicus [4] were 10% and 8%, respectively.

Take `COc1cc2nc(N(C)C)cc(N)c2cc1OC`: the Reduction is 11% in the test with Rattus norvegicus [1] and 12% in the test with Rattus norvegicus [4]. Moreover, in test [5], the Displacement is less than 50%.

Turning to `COc1cc2nc(N3CCN(c4nccc(N(C)C)n4)CC3)cc(N)c2cc1OC`, the Reduction in the test with Rattus norvegicus [1] is on record as 19%; with Rattus norvegicus [4], 16%. Also, the Ki in test [2] is on record as 0.46 nM; in test [6], 55.3 nM.

As to `COc1cc2nc(N3CCCCC3)cc(N)c2cc1OC`, the Reduction with Rattus norvegicus [1] and with Rattus norvegicus [4] was 6% each time. The molecule further displayed a Ki in test [2] of 2.93 nM. In test [3], the Displacement was less than 50%.

As to `C=CCNC(=O)N1CCN(c2cc(N)c3cc(OC)c(OC)cc3n2)CC1`, the Reduction worked out at 17% in the test with Rattus norvegicus [1] and 15% in the test with Rattus norvegicus [4]. In addition, the Ki in test [2] came to 0.29 nM. Besides, the Displacement in test [3] was less than 50%.

`COc1cc2nc(N3CCN(c4ccccc4)CC3)cc(N)c2cc1OC`: the Reduction in the test with Rattus norvegicus [1] is reported as 24%; in the test on Rattus norvegicus [4], 8%. The Ki is 1.72 nM in test [2] and 51.6 nM in test [6].

With `COc1cc2nc(N3CCN(C(=O)c4ccccc4)CC3)cc(N)c2cc1OC`, the Reduction in the test on Rattus norvegicus [1] and in the test with Rattus norvegicus [4] was 19% throughout. The molecule further showed a Ki in test [2] of 0.49 nM. The Displacement in test [7] is less than 50%.

Regarding `COc1cc2nc(N3CCN(C(=O)C4COc5ccccc5O4)CC3)cc(N)c2cc1OC` (stereo not drawn), the Reduction is given as 13% in the test with Rattus norvegicus [1] and 6% with Rattus norvegicus [4]. In test [2], the Ki was determined as 0.81 nM. Further, the Displacement in test [3] is less than 50%.

Regarding `COc1cc2nc(N3CCN(C(=O)c4ccco4)CC3)cc(N)c2cc1OC`, the figures for the Reduction with Rattus norvegicus [8] and in the test on Rattus norvegicus [1] were 32% and 25%, respectively. The same molecule yielded a Ki in test [2] of 0.14 nM. The Displacement in test [3] is less than 50%.

As to `CCOc1ccnc(N2CCN(c3cc(N)c4cc(OC)c(OC)cc4n3)CC2)n1`, the Reduction in the test on Rattus norvegicus [1] is on record as 22%; in the test with Rattus norvegicus [4], 19%. The molecule further yielded a Ki in test [2] of 0.42 nM. In test [3], the Displacement was less than 50%.

Take `COc1cc2nc(N3CCN(c4nccc(C)n4)CC3)cc(N)c2cc1OC`: the Reduction is 8% with Rattus norvegicus [1] and 10% with Rattus norvegicus [4]. In addition, the Ki in test [2] came to 0.63 nM. Moreover, the Displacement in test [3] was less than 50%.

Take `COc1cc2nc(N3CCN(C(=O)c4ccco4)CC3)nc(N)c2cc1OC` [PRAZOSIN]: the values for the Reduction in the test with Rattus norvegicus [1] and with Rattus norvegicus [4] were 15% and 24%, respectively.

Consider `COc1cc2nc(N3CCN(C(C)=O)CC3)cc(N)c2cc1OC`, for which the Reduction with Rattus norvegicus [1] was found to be 7%; in the test on Rattus norvegicus [4], 4%. In addition, the Ki in test [2] was determined as 1.17 nM.

As for `COc1cc2nc(N3CCN(C(=O)Nc4ccccc4)CC3)cc(N)c2cc1OC`, the Reduction with Rattus norvegicus [1] was 25%; in the test on Rattus norvegicus [4], 20%. The values for the Ki in test [2] and in test [6] were 0.34 nM and 66 nM, respectively.

For the molecule `CCCNC(=O)N1CCN(c2cc(N)c3cc(OC)c(OC)cc3n2)CC1`, the values for the Reduction in the test with Rattus norvegicus [1] and in the test with Rattus norvegicus [4] were 8% and 3%, respectively. Further, the Ki in test [2] was 0.44 nM. This molecule also registered a Displacement in test [3] of less than 50%.
